Assay results published in publication doi:10.1101/2023.11.24.568596v1 (biorxiv, 2023).

Experiments:
Conditions in all cases: binder
MST2 = target: T1, MST2 (Homo sapiens, UniProt Q13188)
T1 sequence (Q13188 1-491): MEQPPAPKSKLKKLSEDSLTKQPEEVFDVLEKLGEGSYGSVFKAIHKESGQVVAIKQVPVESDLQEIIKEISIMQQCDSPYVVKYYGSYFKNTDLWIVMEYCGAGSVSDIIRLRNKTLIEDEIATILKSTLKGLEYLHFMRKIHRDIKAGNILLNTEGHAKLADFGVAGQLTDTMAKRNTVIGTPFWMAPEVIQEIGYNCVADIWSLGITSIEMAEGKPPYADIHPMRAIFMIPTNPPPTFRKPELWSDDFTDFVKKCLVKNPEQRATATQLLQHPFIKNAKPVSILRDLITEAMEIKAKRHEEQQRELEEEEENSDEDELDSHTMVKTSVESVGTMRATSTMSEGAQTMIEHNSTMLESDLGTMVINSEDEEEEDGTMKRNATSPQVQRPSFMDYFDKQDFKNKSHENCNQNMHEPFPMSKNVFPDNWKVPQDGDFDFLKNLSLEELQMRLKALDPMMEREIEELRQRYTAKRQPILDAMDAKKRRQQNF

MST3 = MST3 (Homo sapiens, UniProt Q9Y6E0)
Sequence of MST3 (Q9Y6E0 whole entry): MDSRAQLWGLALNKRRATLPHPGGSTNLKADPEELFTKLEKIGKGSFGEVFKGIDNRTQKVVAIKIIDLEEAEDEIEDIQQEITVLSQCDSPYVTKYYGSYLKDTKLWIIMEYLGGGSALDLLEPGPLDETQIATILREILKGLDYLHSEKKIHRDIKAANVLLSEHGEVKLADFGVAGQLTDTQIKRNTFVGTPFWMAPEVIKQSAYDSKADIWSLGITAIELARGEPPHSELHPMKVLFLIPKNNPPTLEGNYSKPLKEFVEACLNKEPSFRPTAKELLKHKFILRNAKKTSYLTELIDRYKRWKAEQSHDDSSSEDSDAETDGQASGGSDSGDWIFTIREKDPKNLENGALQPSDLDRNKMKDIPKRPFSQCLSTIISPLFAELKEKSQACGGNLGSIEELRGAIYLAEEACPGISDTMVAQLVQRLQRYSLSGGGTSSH

PAK1 = PAK1 (Homo sapiens, UniProt Q13153)
Sequence of PAK1 (Q13153 whole entry): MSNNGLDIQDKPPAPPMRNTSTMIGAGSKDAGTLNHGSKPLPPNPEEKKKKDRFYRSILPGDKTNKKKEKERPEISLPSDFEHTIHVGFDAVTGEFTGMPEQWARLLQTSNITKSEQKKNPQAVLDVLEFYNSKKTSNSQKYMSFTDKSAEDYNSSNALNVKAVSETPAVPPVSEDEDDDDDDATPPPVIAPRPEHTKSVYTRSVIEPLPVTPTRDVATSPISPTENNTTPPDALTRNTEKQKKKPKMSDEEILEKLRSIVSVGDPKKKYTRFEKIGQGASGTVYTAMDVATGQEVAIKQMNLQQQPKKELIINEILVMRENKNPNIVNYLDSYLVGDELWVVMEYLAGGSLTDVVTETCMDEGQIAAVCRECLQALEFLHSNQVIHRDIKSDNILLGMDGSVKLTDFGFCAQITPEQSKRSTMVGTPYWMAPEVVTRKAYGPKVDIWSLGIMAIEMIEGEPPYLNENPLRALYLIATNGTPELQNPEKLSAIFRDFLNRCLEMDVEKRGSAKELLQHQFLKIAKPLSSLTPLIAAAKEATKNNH

MST1 = target: T2, MST1 (Homo sapiens, UniProt Q13043)
T2 sequence (Q13043 1-487): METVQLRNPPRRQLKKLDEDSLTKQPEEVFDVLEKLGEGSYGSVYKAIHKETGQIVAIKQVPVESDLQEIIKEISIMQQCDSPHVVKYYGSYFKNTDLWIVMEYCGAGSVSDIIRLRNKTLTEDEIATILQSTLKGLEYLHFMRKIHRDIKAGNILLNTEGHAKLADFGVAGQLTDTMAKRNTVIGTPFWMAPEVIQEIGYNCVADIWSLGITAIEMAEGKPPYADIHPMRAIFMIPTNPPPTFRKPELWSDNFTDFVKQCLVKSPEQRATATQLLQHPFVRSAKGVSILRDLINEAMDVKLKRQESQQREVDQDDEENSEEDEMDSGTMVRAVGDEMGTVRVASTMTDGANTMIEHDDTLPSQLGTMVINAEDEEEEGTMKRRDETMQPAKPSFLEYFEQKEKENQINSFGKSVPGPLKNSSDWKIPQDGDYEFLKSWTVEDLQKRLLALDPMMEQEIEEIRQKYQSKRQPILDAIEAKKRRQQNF

MST4 = MST4 (Homo sapiens, UniProt Q9P289)
Sequence of MST4 (Q9P289 whole entry): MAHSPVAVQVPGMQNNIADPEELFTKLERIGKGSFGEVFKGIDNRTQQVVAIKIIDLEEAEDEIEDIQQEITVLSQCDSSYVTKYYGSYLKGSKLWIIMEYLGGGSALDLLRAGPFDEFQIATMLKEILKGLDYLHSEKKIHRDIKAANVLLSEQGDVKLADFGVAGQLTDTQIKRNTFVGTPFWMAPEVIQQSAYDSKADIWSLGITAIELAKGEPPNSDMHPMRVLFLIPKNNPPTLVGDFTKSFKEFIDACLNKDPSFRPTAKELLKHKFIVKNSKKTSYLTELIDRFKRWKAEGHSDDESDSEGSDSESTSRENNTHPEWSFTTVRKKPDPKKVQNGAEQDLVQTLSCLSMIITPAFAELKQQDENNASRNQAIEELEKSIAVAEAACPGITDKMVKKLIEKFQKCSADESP

Row | Compound | dTm MST2 (MST2) [°C] | dTm MST3 (MST3) [°C] | dTm PAK1 (PAK1) [°C] | dTm MST1 (MST1) [°C] | dTm MST4 (MST4) [°C]
1 | CNc1ncc2cc(-c3ccc(-c4cccc(C)n4)cc3Cl)c(O)nc2n1 [compound 9, 6-(2-Chloro-4-(6-methylpyridin-2-yl)phenyl)-2-(methylamino)pyrido[2,3-d]pyrimidin-7-ol] | 0.3 | 0.6 | – | – | –
2 | CNc1ncc2cc(-c3ccc(-c4cccc(C)n4)cc3Cl)c(=O)n(C)c2n1 [compound 10, 6-(2-Chloro-4-(6-methylpyridin-2-yl)phenyl)-8-methyl-2-(methylamino)pyrido[2,3-d]pyrimidin-7(8H)-one] | 1.3 | 3.7 | 3.2 | 1.6 | 1.6
3 | CNc1ncc2cc(-c3ccc(-c4cccc(C)n4)cc3Cl)c(=O)n(CCOC)c2n1 [compound 11, 6-(2-Chloro-4-(6-methylpyridin-2-yl)phenyl)-8-(2-methoxyethyl)-2-(methylamino)-pyrido[2,3-d]pyrimidin-7(8H)-one] | 5.0 | 6.7 | 4.1 | 3.9 | 4.4
4 | CNc1ncc2cc(-c3ccc(-c4cccc(C)n4)cc3Cl)c(=O)n(CCCOC)c2n1 [compound 12, 6-(2-Chloro-4-(6-methylpyridin-2-yl)phenyl)-8-(3-methoxypropyl)-2-(methylamino)-pyrido[2,3-d]pyrimidin-7(8H)-one] | 6.2 | 5.1 | 5.1 | 3.6 | 4.1
5 | CNc1ncc2cc(-c3ccc(-c4cccc(C)n4)cc3Cl)c(=O)n(CCCCOC)c2n1 [compound 13, 6-(2-Chloro-4-(6-methylpyridin-2-yl)phenyl)-8-(4-methoxybutyl)-2-(methylamino)-pyrido[2,3-d]pyrimidin-7(8H)-one] | 8.6 | 6.2 | 4.8 | 3.3 | 3.6
6 | CNc1ncc2cc(-c3ccc(-c4cccc(C)n4)cc3Cl)c(=O)n(CCO)c2n1 [compound 14, 6-(2-Chloro-4-(6-methylpyridin-2-yl)phenyl)-8-(2-hydroxyethyl)-2-(methylamino)-pyrido[2,3-d]pyrimidin-7(8H)-one] | 9.0 | 7.8 | 5.0 | 4.0 | 5.8
7 | CNc1ncc2cc(-c3ccc(-c4cccc(C)n4)cc3Cl)c(=O)n(CCCO)c2n1 [compound 15, 6-(2-Chloro-4-(6-methylpyridin-2-yl)phenyl)-8-(3-hydroxypropyl)-2-(methylamino)-pyrido[2,3-d]pyrimidin-7(8H)-one] | 6.3 | 6.2 | 4.5 | 3.4 | 5.0
8 | CNc1ncc2cc(-c3ccc(-c4cccc(C)n4)cc3Cl)c(=O)n(CCCCO)c2n1 [compound 16, 6-(2-Chloro-4-(6-methylpyridin-2-yl)phenyl)-8-(4-hydroxybutyl)-2-(methylamino)-pyrido[2,3-d]pyrimidin-7(8H)-one] | 7.1 | 5.7 | 5.0 | 3.8 | 5.0
9 | CNc1ncc2cc(-c3ccc(-c4cccc(C)n4)cc3Cl)c(=O)n(CCCCCO)c2n1 [compound 17, 6-(2-Chloro-4-(6-methylpyridin-2-yl)phenyl)-8-(5-hydroxypentyl)-2-(methylamino)-pyrido[2,3-d]pyrimidin-7(8H)-one] | 6.1 | 6.6 | 6.0 | 2.4 | 5.5
10 | CNc1ncc2cc(-c3ccc(-c4cccc(C)n4)cc3Cl)c(=O)n(CCN)c2n1 [compound 18, 8-(2-Aminoethyl)-6-(2-chloro-4-(6-methylpyridin-2-yl)phenyl)-2-(methylamino)pyrido[2,3-d]pyrimidin-7(8H)-one] | 1.6 | 5.5 | 1.3 | 1.6 | 3.3
11 | CNc1ncc2cc(-c3ccc(-c4cccc(C)n4)cc3Cl)c(=O)n(CCCN)c2n1 [compound 19, 8-(3-Aminopropyl)-6-(2-chloro-4-(6-methylpyridin-2-yl)phenyl)-2-(methylamino)-pyrido[2,3-d]pyrimidin-7(8H)-one] | 4.4 | 7.9 | 4.0 | 2.8 | 7.2
12 | CNc1ncc2cc(-c3ccc(-c4cccc(C)n4)cc3Cl)c(=O)n(CCCCCN)c2n1 [compound 21, 8-(5-Aminopentyl)-6-(2-chloro-4-(6-methylpyridin-2-yl)phenyl)-2-(methylamino)-pyrido[2,3-d]pyrimidin-7(8H)-one] | 10.7 | 9.2 | 6.3 | 5.2 | 7.1
